Like-named read-outs stand apart in the source and are kept apart here.
What was measured:
[1] = system: Propionic Acidemia (PA) primary fibroblasts Tsi 6337; assay: Mitochondrial respiration, XFe96 Extracellular Flux Analyzer (OCR/ECAR), PA fibroblasts Tsi 6337; type: cell-based; settings: Homo sapiens, Fibroblast
Protocol: The effect of the compounds of the present disclosure on mitochondrial respiration was measured with a XFe96 Extracellular Flux Analyzer (Seahorse Bioscience, Agilent Technologies) and Oxygen consumption Rate (OCR) and Extracellular acidification rate (ECAR) determined.
Cell culture and treatments. Primary adherent fibroblasts were cultured in minimum essential medium (MEM) (Gibco, 25030081) supplemented with 2 mM L-Glutamine (Gibco, 25030081), 15% fetal bovine serum (FBS) (Gibco, 26400044) and 1% penicillin/streptomycin (Gibco, 5140122) at 37° C. and 5% CO2. Cells were collected for either passaging or experiment at ˜70-80% confluence. Cells were obtained by trypsinization and seeded at 20000 cells/well in cell culture microplates (Seahorse Bioscience, 101085-004) and allowed to adhere for 16 hours in culture media.
By profiling different primary cells and/or optimizing their culture media or environmental components one can select cell lines and/or conditions that are appropriate for the biological or disease model. In the present example, 24 hours prior to OCR and ECAR profiling, media was changed to Dulbecco's Modified Eagle Medium (DMEM, Agilent Seahorse 103575-100) with the appropriate supplements for the different primary cells (10 mM glucose, 2 mM L-glutamine, 1 mM pyruvate, 10% FBS; 1 mM glucose, 2 mM L-glutamine, 1 mM pyruvate, 10% FBS; 10 mM glucose, 10% FBS; 5 mM glucose 10% FBS; 1 mM glucose 10% FBS). Cells used in this example were: Propionic Acidemia (PA) (GM00371, GM03590 Coriell Institute for Medical Research, Tsi 6337, Tsi 4626, Tsi 3618 Trans-Hit Bio), Methylmalonic Acidemia (MMA) (GM01673, Coriell Institute for Medical Research, Tsi 5224 Trans-Hit Bio), Branched chain ketoacid dehydrogenase kinase (BCKDK) (GM00612, GM00649 Coriell Institute for Medical Research), Subnormal activation of pyruvate dehydrogenase complex (PDH) (GM01503 Coriell Institute for Medical Research), Very long-chain acyl-CoA dehydrogenase (VLCAD) (GM17475), Leigh Syndrome (LS) (GM03672, GM13411 Coriell Institute for Medical Research), Pyruvate Carboxylase Deficiency (PC) (GM00444 Coriell Institute for Medical Research), Glutaric Acidemia-I (GA) (GM10653), Friedreich's Ataxia (FXN) (GM04078 Coriell Institute for Medical Research, Huntington's disease (HD) (GM21756 Coriell Institute for Medical Research), Ornithine Transcarbamylase Deficiency (OTC) (GM12756 Coriell Institute for Medical Research), Kearns-Sayre Syndrome (KSS) (GM06225 Coriell Institute for Medical Research).
One hour before the assay, the cells were washed with freshly prepared unbuffered serum free-Seahorse XF Assay medium (Seahorse Bioscience, North America, USA, 103575-100) with the same supplements as for the previous 24 hour incubation.
After baseline measurements of OCR, cells were challenged with compounds of the present disclosure at different concentrations (10 to 50 μM) or vehicle (DMSO, 0.1%) and a post-compound baseline was recorded. OCR was measured after sequentially adding to each well 1 μg/ml oligomycin (inhibitor of ATP synthase Sigma-Aldrich, 753531), then maximal OCR was determined with carbonyl cyanide 4-(trifluoromethoxy) phenylhydrazone (FCCP, Sigma-Aldrich, C2920), (uncoupler of oxidative phosphorylation) and 0.5 μM of rotenone (Sigma-Aldrich, R8875) plus antimycin A (Sigma-Aldrich, A8674) (inhibitors of mitochondrial complex I and III) for determination of rotenone-antimycin insensitive respiration together with Hoechst for nuclear staining in situ when normalized to cell counts. After the analysis and nuclear staining, the XFp microplate was transferred to the Cytation 5, and the nuclear images were captured, the individual nuclei were identified and counted by BioTek Gen5 software. Data were expressed as pmol of O2 per minute and normalized by nuclear staining and baselined to pre-compound addition.
Assay conditions were as stated below.
Assay specifics on assay conditions are indicated below when readouts were normalized to cell counts. […]

[2] = system: primary fibroblasts (healthy controls and PA, MMA, BCKDK, PDH, VLCAD, LS, PC, GA, VLCFA, KSS, FXN, HD); assay: Measurement of ROS (H2DCFDA) in primary fibroblasts; type: cell-based, human; settings: Homo sapiens, procedure Example 812
Protocol: Primary adherent fibroblasts were cultured in minimum essential medium (MEM) (Gibco, 25030081) supplemented with 2 mM L-Glutamine (Gibco, 25030081), 15% fetal bovine serum (FBS) (Gibco, 26400044) and 1% penicillin/streptomycin (Gibco, 5140122) at 37° C. and 5% CO2. Cells were collected for either passaging or experiment at ˜70-80% confluence. Cells were obtained by trypsinization and seeded in cell culture microplates either white plate (Thermo Fisher Scientific, 152028) for luminescent measurement or black plate (Thermo Fisher Scientific, 165305) for fluorescent based read out for different assays listed below. Cells were obtained by trypsinization and […] were seeded and allowed to adhere for 16-18 hours to have confluency around 70-80% in the cell well with culture media. After 24 hours prior to measurements (37° C., 5% CO2) media was changed to Dulbecco's Modified Eagle Medium (DMEM, Agilent Seahorse cat #103575-100) with the appropriate supplements as stated below.
Primary fibroblasts assayed were Healthy controls (GM00041, GM05659, GM23974 Coriell Institute for Medical Research), Propionic Acidemia (PA) (GM00371, GM03590 Coriell Institute for Medical Research, Tsi 6337 Trans-Hit Bio), Methylmalonic Acidemia (MMA) (GM01673, Coriell Institute for Medical Research, Tsi 5224, Tsi 4290 Trans-Hit Bio), Branched chain ketoacid dehydrogenase kinase (BCKDK) (GM00612, GM00649 Coriell Institute for Medical Research), Subnormal activation of pyruvate dehydrogenase complex (PDH) (GM01503 Coriell Institute for Medical Research), Very long-chain acyl-CoA dehydrogenase (VLCAD) (GM17475), Leigh Syndrome (LS) (GM03672, GM13411 Coriell Institute for Medical Research), Pyruvate Carboxylase Deficiency (PC) (GM00444 Coriell Institute for Medical Research), Glutaric Acidemia-I (GA), Impaired VLCFA oxidation (VLCFA) (GM13262), Kearns-Sayre Syndrome (KSS) (GM06225 Coriell Institute for Medical Research), Friedreich's Ataxia (FXN), Huntington's disease (HD) (GM21756 Coriell Institute for Medical Research). Next, cells were treated with compounds (10 μM) and ROS H2DCFDA (22 μM) dye for 2 hours in PA, MMA lines and for 24h for the other fibroblast lines. Kinetic read was started immediately with a i3x plate reader (492/527 nm) for 60 minutes.
A total dead cell count was performed as described in Example 817 and only alive cells were used for analysis.

[3] = system: Methylmalonic Acidemia (MMA) primary fibroblasts Tsi 5224; assay: Mitochondrial respiration, XFe96 Extracellular Flux Analyzer (OCR/ECAR), MMA fibroblasts Tsi 5224; type: cell-based; settings: Homo sapiens, Fibroblast;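 as to Increase in Maximal Respiratory Capacity AUC: relative to vehicle DMSO control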
Method in brief: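 Primary fibroblasts (20000 cells/well) were held 24 h in supplemented DMEM before Seahorse OCR/ECAR profiling. Compounds at 10 to 50 μM or 0.1% DMSO were injected after baseline, then oligomycin 1 μg/ml, FCCP, and rotenone/antimycin A 0.5 μM. Values were normalized to Hoechst nuclear counts, baselined to pre-compound, and expressed relative to vehicle.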

[4] = system: monocyte-derived M1 macrophages; assay: M1 differentiation assay (macrophage TNFα, IL6, IL10 ELISA, FACS); type: cell-based, human
Protocol: Monocytes were isolated by positive isolation with CD14+ microbeads (Miltenyi, 130-050-201). Monocytes were 99% viable and were 96% purity as analyzed by FACS and CD14+ (BD, 563561). 100,000 monocytes along with compounds at the dose of 10 and 50 μM were allowed to differentiate to macrophages with 10 ng/ml GMCSF (R&D, 15-GM-050/CF) in RPMI complete media (Invitrogen, 22400089) with 15% FBS (Hyclone SV30087.03) and 1% Penicillin-Streptomycin (Gibco, 15140-122). On day 2 and 4 half the media was refreshed with fresh GM-CSF and compounds at 10 and 50 μM dose. On day 6 the macrophages were matured with GMCSF, IFNγ (R&D 285-IF-100/CF) and LPS (Sigma, L6143) in the presence of 10 μM and 50 μM of compounds. After 24h, supernatant was collected for the measurement of TNFα (DKW, 1117202) IL6 (DKW, 1110602), IL10 (DKW, 1110003) by ELISA. Macrophages were detached gently on ice with EDTA (Invitrogen, 15575-038) and analyzed by FACS (BD LSR Fortessa, 853492). Cells were stained for live/dead dye, surface and intracellular markers with fixation/permeabilization solution (BD, 554714) and ALIVE/DEAD™ Fixable Near-IR Dead Cell Stain Kit (BD, L34976), mouse anti human CD86 APC (BD, 555660), mouse anti-human CD163 PE (BD, 556018), mouse anti-human CD68 FITC (BD, 562117) or isotype controls anti-mouse IgG1 κ PE (BD, 559320) and anti-mouse IgG1 κ APC (BD, Anti mouse IgG1 κ APC (BD, 55571). Mature M1 macrophages were defined as CD86+CD68+CD163− and increase in TNFα, IL6, and decrease in IL-10.

[5] = PA Tsi 6337, assay condition A (10 mM glucose, 2 mM L-glutamine, 1 mM pyruvate, 10% FBS), read-out: Increase in Maximal Respiratory Capacity AUC
[6] = FXN GM04078, Assay Condition C, read-out: Decreased ROS by at least 10%
[7] = FXN GM04078, Assay Condition C, read-out: Decreased ROS by at least 30%
[8] = MMA Tsi 5224, assay condition A (10 mM glucose, 2 mM L-glutamine, 1 mM pyruvate, 10% FBS), read-out: Increase in Maximal Respiratory Capacity AUC
[9] = PA Tsi 6337, assay condition D (1 mM glucose, 10% FBS), read-out: Increase in Maximal Respiratory Capacity AUC

CC[C@H](O)CC(=O)SCCNC(=O)CCNC(=O)[C@H](O)C(C)(C)CO [Compound 1249, (2R)-2,4-dihydroxy-N-{2-[(2-{[(3S)-3-hydroxypentanoyl]sulfanyl}ethyl)carbamoyl]ethyl}-3,3-dimethylbutanamide]
activation at 10 µM [1, 5]: ≥ 10%
inhibition at 10 µM ([2]; Fibroblast, VLCAD GM17475, Assay Condition C, read-out: Decreased ROS by at least 10%): ≥ 10%
inhibition at 10 µM ([2]; Fibroblast, VLCAD GM17475, Assay Condition C, read-out: Decreased ROS by at least 30%): ≥ 30%
inhibition at 10 µM [2, 6]: ≥ 10%
inhibition at 10 µM [2, 7]: ≥ 30%

CC(C)(COC(=O)CCC(=O)O)[C@@H](OC(=O)CCC(=O)O)C(=O)NCCC(=O)NCCSC(=O)CCC(=O)O [Compound 1233]
activation at 10 µM ([3]; MMA Tsi 5224, assay condition C (10 mM glucose, 10% FBS), read-out: Increase in Spare Capacity AUC): ≥ 50%
activation at 10 µM [1, 5]: ≥ 10%
inhibition at 10 µM ([2]; Fibroblast, BCKD GM00612, Assay Condition A, read-out: Decreased ROS by at least 10%): ≥ 10%
inhibition at 10 µM ([2]; Fibroblast, VLCFA GM13262, Assay Condition C, read-out: Decreased ROS by at least 30%): ≥ 30%
inhibition at 10 µM [2, 6]: ≥ 10%
inhibition at 10 µM [2, 7]: ≥ 30%

CC(C)(CO)[C@@H](O)C(=O)NCCC(=O)NCCSC(=O)[C@@H](N)CC(=O)O [Compound 390]
activation at 10 µM [3, 8]: ≥ 10%
activation at 10 µM ([1]; PA Tsi 6337, assay condition D (1 mM glucose, 10% FBS), read-out: Increase in Spare Capacity AUC): ≥ 10%

CC(C(=O)SCCNC(=O)CCNC(=O)[C@H](O)C(C)(C)CO)[C@H](C)O (stereo partly drawn) [Compound 1248, (2R)-2,4-dihydroxy-N-{2-[(2-{[(3S)-3-hydroxy-2-methylbutanoyl]sulfanyl}ethyl)carbamoyl]ethyl}-3,3-dimethylbutanamide]
activation at 10 µM [3, 8]: ≥ 10%
activation at 10 µM [1, 5]: ≥ 10%

COC(=O)C(=O)SCCNC(=O)CCNC(=O)[C@H](O)C(C)(C)COP(=O)(O)O [Compound 60, Methyl (R)-2-((2-(3-(2-hydroxy-3,3-dimethyl-4-(phosphonooxy)butanamido)propanamido)ethyl)thio)-2-oxoacetate]
activation at 10 µM ([3]; MMA Tsi 5224, assay condition D (1 mM glucose, 10% FBS), read-out: Increase in Maximal Respiratory Capacity AUC): ≥ 10%
activation at 10 µM [1, 9]: ≥ 10%
inhibition at 10 µM ([2]; Fibroblast, KSS GM06225, Assay Condition C, read-out: Decreased ROS by at least 10%): ≥ 10%
inhibition at 10 µM ([2]; Fibroblast, KSS GM06225, Assay Condition C, read-out: Decreased ROS by at least 30%): ≥ 30%

COC(=O)CCC(=O)SCCNC(=O)CCNC(=O)[C@H](O)C(C)(C)COC(=O)CN [Compound 1228]
activation at 10 µM [3, 8]: ≥ 10%
activation at 10 µM [1, 5]: ≥ 10%
activation at 10 µM [1, 9]: ≥ 10%

COC(=O)CC(O)(CC(=O)OC)C(=O)SCCNC(=O)CCNC(=O)[C@H](O)C(C)(C)CO [Compound 418]
activation at 10 µM [1, 9]: ≥ 10%
% decrease in Live Macrophage Cells ([4]; 50 uM): ≥20%
activation at 10 µM ([4]; Homo sapiens, Macrophage, 10 uM, read-out: % Increase in IL-10 Secretion): ≥ 30%
inhibition at 10 µM ([4]; Homo sapiens, Macrophage, 10 uM, read-out: % decrease in Macrophage IL-6 Secretion): ≥ 30%
inhibition at 10 µM ([4]; Homo sapiens, Macrophage, 10 uM, read-out: % decrease in Macrophage TNFα Secretion): ≥ 30%

— US20230107216A1, “PANTETHEINE DERIVATIVES AND USES THEREOF” (Comet Therapeutics, Inc., priority 2018, published 2023)
